Source: ChEMBL document CHEMBL5230096, “A comprehensive insight on the recent development of Cyclic Dependent Kinase inhibitors as anticancer agents” (Eur J Med Chem, 2020)
pIC50: −log10 of the molar value.

How the values were obtained:
MCF7 = assay: Cytotoxicity against human MCF7 cells assessed as reduction in cell growth incubated for 72 hrs by Calcein AM assay; assay type: functional, cell-based; conditions: MCF7, 72 h
HT-29 = assay: Cytotoxicity against human HT-29 cells assessed as reduction in cell growth incubated for 72 hrs by Calcein AM assay; assay type: functional, cell-based; conditions: HT-29, 72 h
HeLa [1] = assay: Cytotoxicity against human HeLa cells assessed as reduction in cell growth incubated for 72 hrs by Calcein AM assay; assay type: functional, cell-based
U-266 = assay: Cytotoxicity against human U-266 cells assessed as reduction in cell growth incubated for 72 hrs by Calcein AM assay; assay type: functional, cell-based; conditions: U-266, 72 h
G-361 = assay: Cytotoxicity against human G-361 cells assessed as reduction in cell growth incubated for 72 hrs by Calcein AM assay; assay type: functional, cell-based; conditions: G-361, 72 h
MDA-MB-468 = assay: Cytotoxicity against human MDA-MB-468 cells assessed as reduction in cell growth incubated for 72 hrs by Calcein AM assay; assay type: functional, cell-based; conditions: MDA-MB-468, 72 h
HOS = assay: Cytotoxicity against human HOS cells assessed as reduction in cell growth incubated for 72 hrs by Calcein AM assay; assay type: functional, cell-based
HCT-116 [2] = assay: Cytotoxicity against human HCT-116 cells assessed as reduction in cell growth incubated for 72 hrs by Calcein AM assay; assay type: functional, cell-based; conditions: HCT-116, 72 h
K562 = assay: Cytotoxicity against human K562 cells assessed as reduction in cell growth incubated for 72 hrs by Calcein AM assay; assay type: functional, cell-based; conditions: K562, 72 h
CCRF-CEM = assay: Cytotoxicity against human CEM cells assessed as reduction in cell growth incubated for 72 hrs by Calcein AM assay; assay type: functional, cell-based
RPMI-8226 = assay: Cytotoxicity against human RPMI-8226 cells assessed as reduction in cell growth incubated for 72 hrs by Calcein AM assay; assay type: functional, cell-based; conditions: RPMI-8226, 72 h
[3] = Cytotoxicity against human L02 cells assessed as inhibition of cell viability incubated for 72 hrs by MTT assay; assay type: toxicity, cell-based
HCT-116 [4] = assay: Antiproliferative activity against human HCT-116 cells assessed as reduction in cell viability incubated for 72 hrs by MTT assay; assay type: functional, cell-based; conditions: HCT-116, 72 h
A549 [5] = assay: Antiproliferative activity against human A549 cells assessed as reduction in cell viability incubated for 72 hrs by MTT assay; assay type: functional, cell-based; conditions: A549, 72 h
HL-60 = assay: Antiproliferative activity against human HL-60 cells assessed as reduction in cell viability incubated for 72 hrs by MTT assay; assay type: functional, cell-based; conditions: HL-60, 72 h
CDK2/Cyclin A2 = CDK2/Cyclin A2 (Homo sapiens, UniProt P24941); assay: Inhibition of CDK2/cyclin A2 (unknown origin) expressed in baculovirus expression system incubated for 1 hr using Ser/Thr12 Peptide as substrate in presence of ATP by Z-LYTE kinase assay
MDA-MB-453 = assay: Antiproliferative activity against human MDA-MB-453 cells assessed as cell growth inhibition incubated for 72 hrs by MTT assay; assay type: functional
MV4-11 = assay: Antiproliferative activity against human MV4-11 cells assessed as cell growth inhibition incubated for 72 hrs by resazurin assay; assay type: functional
[6] = AUC in Balb/c mouse at 10 mg/kg,po and measured upto 24 hrs by LC/MS/MS analysis; assay type: ADME, organism-based; parameters: time < 24 hrs, dose 10 mg/kg, route po; conditions: in vivo
[7] = AUC in Wistar rat at 20 mg/kg,po and measured upto 24 hrs by LC/MS/MS analysis; assay type: ADME, organism-based; parameters: time < 24 hrs, dose 20 mg/kg, route po; conditions: in vivo
[8] = Cytotoxicity against human L02 cells assessed cell growth inhibition incubated for 2 days by MTT assay; assay type: toxicity, cell-based
NCI-H522 = assay: Cytotoxicity against human NCI-H522 cells assessed cell growth inhibition incubated for 2 days by MTT assay; assay type: functional, cell-based; conditions: NCI-H522, 48 h
[9] = Cytotoxicity against human U87 cells assessed cell growth inhibition incubated for 2 days by MTT assay; assay type: functional, cell-based, U-87MG ATCC; conditions: U-87 MG, 48 h
[10] = target: Cyclin-dependent kinase 2 (Homo sapiens, UniProt P24941); assay: Inhibition of CDK2 (unknown origin) incubated for 10 min using histone H1 as substrate in presence of gamma32P-ATP by radioactive assay
[11] = target: Cyclin-dependent kinase 9 (Homo sapiens, UniProt P50750); assay: Inhibition of CDK9 (unknown origin) using TMB as substrate by spectrophotometric analysis
Cyclin-dependent kinase 9, sequence (P50750 whole entry): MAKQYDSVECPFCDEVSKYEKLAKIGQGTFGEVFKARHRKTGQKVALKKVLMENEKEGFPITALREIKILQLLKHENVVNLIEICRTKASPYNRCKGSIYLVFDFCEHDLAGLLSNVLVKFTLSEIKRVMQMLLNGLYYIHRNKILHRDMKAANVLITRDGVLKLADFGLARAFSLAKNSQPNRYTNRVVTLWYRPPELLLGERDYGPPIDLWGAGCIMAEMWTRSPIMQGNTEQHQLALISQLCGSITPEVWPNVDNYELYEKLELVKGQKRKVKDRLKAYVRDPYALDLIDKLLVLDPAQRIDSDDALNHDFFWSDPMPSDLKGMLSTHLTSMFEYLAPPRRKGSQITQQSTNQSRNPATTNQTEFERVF

[12] = target: Protein cereblon/Cyclin-dependent kinase 4 (Homo sapiens, UniProt P11802+Q96SW2); assay: Protac activity at CRBN/CDK4 in human MDA-MB-231 cells assessed as CDK4 degradation incubated for 18 hrs by Western blot analysis; assay type: cell-based
Protein cereblon/Cyclin-dependent kinase 4, sequence (P11802 whole entry): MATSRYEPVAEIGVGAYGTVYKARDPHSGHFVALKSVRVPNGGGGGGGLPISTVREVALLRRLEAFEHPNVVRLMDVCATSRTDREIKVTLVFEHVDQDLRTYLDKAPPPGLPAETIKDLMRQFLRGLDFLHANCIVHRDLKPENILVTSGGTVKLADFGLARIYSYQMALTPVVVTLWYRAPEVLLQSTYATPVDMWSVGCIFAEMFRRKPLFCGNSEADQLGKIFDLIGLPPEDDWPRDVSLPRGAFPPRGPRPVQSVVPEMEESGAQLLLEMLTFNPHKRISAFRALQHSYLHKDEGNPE
Protein cereblon/Cyclin-dependent kinase 4, sequence (Q96SW2 whole entry): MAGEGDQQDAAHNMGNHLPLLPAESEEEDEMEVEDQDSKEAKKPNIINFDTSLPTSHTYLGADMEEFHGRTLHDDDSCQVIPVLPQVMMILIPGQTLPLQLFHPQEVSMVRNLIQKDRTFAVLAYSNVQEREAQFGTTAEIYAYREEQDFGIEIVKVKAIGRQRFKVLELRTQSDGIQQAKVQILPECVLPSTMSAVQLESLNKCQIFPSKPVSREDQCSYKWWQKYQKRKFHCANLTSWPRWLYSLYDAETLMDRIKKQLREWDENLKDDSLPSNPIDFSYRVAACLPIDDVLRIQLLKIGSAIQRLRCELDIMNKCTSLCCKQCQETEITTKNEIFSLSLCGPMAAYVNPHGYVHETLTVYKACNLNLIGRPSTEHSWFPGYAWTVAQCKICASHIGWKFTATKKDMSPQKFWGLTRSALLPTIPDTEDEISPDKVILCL

[13] = target: Protein cereblon/Cyclin-dependent kinase 6 (Homo sapiens, UniProt Q00534+Q96SW2); assay: Protac activity at CRBN/CDK6 in human MDA-MB-231 cells assessed as CDK6 degradation incubated for 18 hrs by Western blot analysis; assay type: cell-based
Protein cereblon/Cyclin-dependent kinase 6, sequence (Q00534 whole entry): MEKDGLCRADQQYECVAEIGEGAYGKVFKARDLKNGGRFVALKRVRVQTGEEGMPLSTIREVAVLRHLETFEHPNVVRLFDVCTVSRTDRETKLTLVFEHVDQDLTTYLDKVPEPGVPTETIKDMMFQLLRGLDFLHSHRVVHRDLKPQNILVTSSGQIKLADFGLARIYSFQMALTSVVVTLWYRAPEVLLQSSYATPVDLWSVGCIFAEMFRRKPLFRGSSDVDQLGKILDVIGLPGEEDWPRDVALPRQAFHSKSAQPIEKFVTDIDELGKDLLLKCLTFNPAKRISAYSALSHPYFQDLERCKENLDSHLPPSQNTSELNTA
Protein cereblon/Cyclin-dependent kinase 6, sequence (Q96SW2 whole entry): as the sequence (Q96SW2 whole entry) above

LS174T = assay: Antitumor activity against human LS174T cells assessed as reduction in cell viability by MTT assay; assay type: functional, cell-based
[14] = target: Cyclin-dependent kinase 4 (Homo sapiens, UniProt P11802); assay: Inhibition of CDK4 (unknown origin) by kinase assay
Cyclin-dependent kinase 4, sequence (P11802 whole entry): as the sequence (P11802 whole entry) above

HeLa [15] = assay: Antitumor activity against human HeLa cells assessed as reduction in cell viability by MTT assay; assay type: functional, cell-based
Bel-7402 = assay: Antitumor activity against human Bel-7402 cells assessed as reduction in cell viability by MTT assay; assay type: functional, cell-based
A549 [16] = assay: Antitumor activity against human A549 cells assessed as reduction in cell viability by MTT assay; assay type: functional, cell-based

Work on `CC[C@H](CO)Nc1nc(NCc2ccccc2N)c2[nH]nc(C(C)C)c2n1` yielded a pIC50 (MCF7) of 5.30, a pIC50 (HT-29) of 5.30 and a pIC50 (HeLa [1]) of 5.30. It also gave a pIC50 (U-266) of 5.30, a pIC50 (G-361) of 5.30 and a pIC50 (MDA-MB-468) of 5.30. For the same molecule, the pIC50 (HOS) was 5.30, the pIC50 (HCT-116 [2]) was 5.30 and the pIC50 (K562) was 5.30. The pIC50 (CCRF-CEM) was 5.30 and the pIC50 (RPMI-8226) was 5.30.
`O=C1CCC(N2C(=O)c3cccc(NC(=O)CCCCCCCn4cc(COc5c(O)cc(O)c6c(=O)cc(-c7ccccc7)oc56)nn4)c3C2=O)C(=O)N1` (configuration not stated) showed an IC50 at 72 hrs [3] greater than 100 µM.
Molecule `CCC(CO)Nc1nc(NCc2ccccn2)c2ncn(CC)c2c1[N+](=O)[O-]` (configuration not stated) has a pIC50 (HCT-116 [4]) of 5.81, a pIC50 (A549 [5]) of 5.41 and a pIC50 (HL-60) of 5.43. The pIC50 (CDK2/Cyclin A2) was 7.68.
`CNc1nc(C)c(-c2nc(Nc3ccc(N4CCC(N(C)C)CC4)cn3)ncc2F)s1` gave a GI50 (MDA-MB-453) of 0.325 µM, a GI50 (MV4-11) of 0.107 µM and an AUC at 24 h [6] of 4.3 µM·h. The AUC at 24 h [7] was 4.4 µM·h.
Molecule `Nc1c([N+](=O)[O-])cnc(NC2CCCCC2)c1[N+](=O)[O-]` has an IC50 at 2 days [8] of 86.7 µM, a pIC50 (NCI-H522) of 5.54 and a pIC50 [9] of 5.50. The pIC50 [10] was 5.74.
`O=C1N=NC(=O)/C(=C\Nc2ccc(-c3nc4ncccc4[nH]3)cc2)C(=O)N1` showed a pIC50 [11] of 6.30.
In the case of `CC(=O)c1c(C)c2cnc(Nc3ccc(N4CCN(Cc5cn(CCCCCC(=O)Nc6cccc7c6C(=O)N(C6CCC(=O)NC6=O)C7=O)nn5)CC4)cn3)nc2n(C2CCCC2)c1=O` (configuration not stated), the DC50 [12] was 0.02 µM and the DC50 [13] was 0.02 µM.
With `CN(Cc1ccccc1)C(=O)CCc1c[nH]c2ccccc12` the pIC50 (LS174T) was 4.96, the pIC50 [14] was 5.00 and the pIC50 (HeLa [15]) was 4.60. For the same molecule, the pIC50 (Bel-7402) was 4.85 and the pIC50 (A549 [16]) was 4.80.
